Reference: ChEMBL document CHEMBL4052642, “4-Methyl-6,7-dihydro-4H-triazolo[4,5-c]pyridine-Based P2X7 Receptor Antagonists: Optimization of Pharmacokinetic Properties Leading to the Identification of a Clinical Candidate” (J Med Chem, 2017)
≈ marks a conversion by molar mass, not a printed value. Calls of active or inactive are those of the source. No cut-off for these calls is given here.

Experiments:
Canis familiaris = experiment: Toxicity in dog at 30 to 300 mg/kg administered via oral gavage on day 1 and day 5 by hematoxylin-eosin staining-based necroscopic method; format: organism-based, Canis lupus familiaris; conditions: in vivo
[1] = target: P2X purinoceptor 7 (Rattus norvegicus) (UniProt Q64663); experiment: Displacement of [3H]-(6S)-7-[[2-chloro-3-(trifluoromethyl)phenyl]methyl]-6-methyl-3-pyrimidin-2-yl-5,6dihydro[1,2,4]triazolo[4,3-a]pyrazin-8-one from P2X7 in rat frontal cortex at 100 pM to 10 uM
Chain of P2X purinoceptor 7 (Rattus norvegicus) (Q64663 whole entry): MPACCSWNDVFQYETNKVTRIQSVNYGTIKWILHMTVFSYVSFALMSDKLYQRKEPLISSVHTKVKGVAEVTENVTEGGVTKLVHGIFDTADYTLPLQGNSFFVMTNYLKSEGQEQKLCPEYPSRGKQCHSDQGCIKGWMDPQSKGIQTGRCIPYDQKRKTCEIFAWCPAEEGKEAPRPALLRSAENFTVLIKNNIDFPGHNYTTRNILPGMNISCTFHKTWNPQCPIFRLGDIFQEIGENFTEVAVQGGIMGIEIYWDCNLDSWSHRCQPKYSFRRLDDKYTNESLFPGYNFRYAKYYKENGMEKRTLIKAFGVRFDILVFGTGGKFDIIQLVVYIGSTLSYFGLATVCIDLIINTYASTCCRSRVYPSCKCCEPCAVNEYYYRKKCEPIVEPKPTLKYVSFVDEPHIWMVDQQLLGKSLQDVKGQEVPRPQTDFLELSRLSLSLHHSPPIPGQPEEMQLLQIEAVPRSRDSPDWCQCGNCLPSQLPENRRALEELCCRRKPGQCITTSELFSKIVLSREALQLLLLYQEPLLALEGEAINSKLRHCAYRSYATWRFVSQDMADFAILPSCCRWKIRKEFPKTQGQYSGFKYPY

[2] = Antagonist activity at P2X7 in dog whole blood assessed as inhibition of BzATP-induced IL-1beta release preincubated for 30 mins followed by BzATP addition measured after […] by ELISA; conditions: Canis lupus familiaris
P2X purinoceptor 7 [3] = target: T1, P2X purinoceptor 7 (Mus musculus, UniProt Q9Z1M0); experiment: Antagonist activity at P2X7 in mouse whole blood assessed as inhibition of BzATP-induced IL-1beta release preincubated for 30 mins followed by BzATP addition measured after […] by ELISA
T1 sequence (Q9Z1M0 whole entry): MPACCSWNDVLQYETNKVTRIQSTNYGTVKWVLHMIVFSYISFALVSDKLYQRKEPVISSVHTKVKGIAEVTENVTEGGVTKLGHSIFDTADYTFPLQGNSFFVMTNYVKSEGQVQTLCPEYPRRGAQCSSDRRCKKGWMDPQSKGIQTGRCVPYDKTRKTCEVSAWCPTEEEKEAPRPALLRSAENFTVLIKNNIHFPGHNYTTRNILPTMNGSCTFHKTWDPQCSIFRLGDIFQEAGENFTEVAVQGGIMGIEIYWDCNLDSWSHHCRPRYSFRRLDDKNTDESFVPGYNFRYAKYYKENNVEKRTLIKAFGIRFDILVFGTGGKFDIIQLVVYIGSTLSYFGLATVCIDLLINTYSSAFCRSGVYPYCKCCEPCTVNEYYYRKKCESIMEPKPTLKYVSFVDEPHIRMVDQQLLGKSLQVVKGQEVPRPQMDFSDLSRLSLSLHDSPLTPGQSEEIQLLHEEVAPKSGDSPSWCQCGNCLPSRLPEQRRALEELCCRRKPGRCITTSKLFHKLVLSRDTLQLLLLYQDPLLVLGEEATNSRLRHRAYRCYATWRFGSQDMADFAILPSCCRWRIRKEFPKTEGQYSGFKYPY

P2X purinoceptor 7 [4] = target: T1, P2X purinoceptor 7; experiment: Antagonist activity at mouse P2X7 assessed as inhibition of BzATP-induced calcium flux preincubated for 30 mins followed by BzATP addition measured over 180 secs by FLIPR assay
[5] = target: P2X purinoceptor 4 (Homo sapiens) (UniProt Q99571); experiment: Antagonist activity at P2X4 (unknown origin) assessed as inhibition of BzATP-induced calcium flux up to 10 uM preincubated for 30 mins followed by BzATP addition measured over 180 secs by FLIPR assay
Chain of P2X purinoceptor 4 (Homo sapiens) (Q99571 whole entry): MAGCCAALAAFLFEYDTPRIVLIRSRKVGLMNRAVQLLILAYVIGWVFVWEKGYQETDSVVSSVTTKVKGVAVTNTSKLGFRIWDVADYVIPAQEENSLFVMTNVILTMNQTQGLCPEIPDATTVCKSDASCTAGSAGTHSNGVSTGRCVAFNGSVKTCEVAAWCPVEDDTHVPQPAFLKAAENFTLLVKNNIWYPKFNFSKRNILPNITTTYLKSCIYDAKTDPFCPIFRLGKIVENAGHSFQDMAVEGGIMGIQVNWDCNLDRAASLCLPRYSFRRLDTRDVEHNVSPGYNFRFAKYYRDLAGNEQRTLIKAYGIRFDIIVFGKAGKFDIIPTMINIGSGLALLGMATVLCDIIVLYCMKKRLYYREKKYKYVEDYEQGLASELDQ

[6] = target: P2X2/P2X3 heterotrimeric receptor (Homo sapiens) (UniProt Q9UBL9+P56373); experiment: Antagonist activity at P2X2/3 (unknown origin) assessed as inhibition of BzATP-induced calcium flux up to 10 uM preincubated for 30 mins followed by BzATP addition measured over 180 secs by FLIPR assay; format: protein-complex assay
[7] = target: P2X purinoceptor 2 (Homo sapiens) (UniProt Q9UBL9); experiment: Antagonist activity at P2X2 (unknown origin) assessed as inhibition of BzATP-induced calcium flux up to 10 uM preincubated for 30 mins followed by BzATP addition measured over 180 secs by FLIPR assay
Chain of P2X purinoceptor 2 (Homo sapiens) (Q9UBL9 whole entry): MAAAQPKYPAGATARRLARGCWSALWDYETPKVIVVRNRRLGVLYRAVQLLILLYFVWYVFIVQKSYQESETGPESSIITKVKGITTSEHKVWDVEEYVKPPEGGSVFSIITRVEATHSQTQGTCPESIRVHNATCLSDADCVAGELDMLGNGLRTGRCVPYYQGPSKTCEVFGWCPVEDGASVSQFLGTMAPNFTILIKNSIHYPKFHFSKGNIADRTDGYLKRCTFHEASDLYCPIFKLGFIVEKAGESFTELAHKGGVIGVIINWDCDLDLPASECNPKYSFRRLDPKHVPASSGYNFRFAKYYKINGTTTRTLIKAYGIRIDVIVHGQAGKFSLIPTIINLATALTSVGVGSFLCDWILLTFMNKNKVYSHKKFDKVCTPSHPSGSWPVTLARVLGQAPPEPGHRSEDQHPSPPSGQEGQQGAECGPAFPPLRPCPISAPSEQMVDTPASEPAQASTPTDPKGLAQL

[8] = target: P2X purinoceptor 1 (Homo sapiens) (UniProt P51575); experiment: Antagonist activity at P2X1 (unknown origin) assessed as inhibition of BzATP-induced calcium flux up to 10 uM preincubated for 30 mins followed by BzATP addition measured over 180 secs by FLIPR assay
Chain of P2X purinoceptor 1 (Homo sapiens) (P51575 whole entry): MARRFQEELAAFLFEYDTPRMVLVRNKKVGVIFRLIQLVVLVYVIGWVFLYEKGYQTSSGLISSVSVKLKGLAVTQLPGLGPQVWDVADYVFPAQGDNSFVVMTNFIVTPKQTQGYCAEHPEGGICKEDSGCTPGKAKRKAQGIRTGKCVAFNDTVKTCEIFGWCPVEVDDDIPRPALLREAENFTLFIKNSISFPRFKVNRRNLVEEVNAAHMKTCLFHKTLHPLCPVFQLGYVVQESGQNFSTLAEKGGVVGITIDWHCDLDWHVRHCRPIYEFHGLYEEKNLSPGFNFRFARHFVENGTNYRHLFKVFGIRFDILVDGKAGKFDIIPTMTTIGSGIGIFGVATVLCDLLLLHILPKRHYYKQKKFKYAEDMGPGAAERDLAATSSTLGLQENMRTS

[9] = Clearance in beagle dog at 0.5 mg/kg, iv or 2.5 mg/kg, po by LC-MS/MS analysis; format: ADME, organism-based, Canis lupus familiaris; conditions: in vivo
[10] = Half life in Sprague-Dawley rat at 1 mg/kg, iv by LC-MS/MS analysis; format: ADME, organism-based; conditions: in vivo
[11] = Solubility of compound in phosphate buffer at pH 7 after 3 days; format: physicochemical
[12] = Protein binding in rat brain at 5 uM after 5 hrs by equilibrium dialysis method; format: ADME, tissue-based; conditions: read-out: PB (converted)
[13] = Protein binding in mouse plasma at 1 uM after 6 hrs by equilibrium dialysis method; format: ADME, cell-free; conditions: read-out: PPB (converted)

inhibition [1]: Dose-dependent effect
IC50 [2]: 158 nM
IC50 (P2X purinoceptor 7 [3]): 31.6 nM
IC50 (P2X purinoceptor 7 [4]): 15.8 nM
inhibition [5]: inactive
inhibition [6]: inactive
inhibition [7]: inactive
inhibition [8]: inactive
clearance [9]: 0.9 mL/min/kg
half-life [10]: 8.6 h
solubility at 72 h [11]: 20.7 µM (≈ 9.12 µg/mL)
fraction unbound at 5 h, 5 µM [12]: 0.051
fraction unbound at 6 h, 1 µM [13]: 0.113
Structure (SMILES): C[C@@H]1c2nnn(-c3ncc(F)cn3)c2CCN1C(=O)c1cccc(C(F)(F)F)c1Cl [JNJ-54175446]
Activity (Canis familiaris): Non-Toxic
